In paper PMC12736958 (Pharmaceutics, 2025):
Where “and” joins values, the source holds several entries; their conditions need not be identical. Equal values may be shown once. One block for each compound: values may come before it.

What was measured:
[1] = in vivo pharmacokinetic study in rats; design: species or system Sprague-Dawley (SD) rats; conditions: rat; for plasma concentration of Cur, individual animals: Rat1-Rat5, listed as Intravenous Cur
Procedure: Male Sprague-Dawley (SD) rats (200 ± 20 g) were supplied by SPF Biotechnology Co., Ltd. (Beijing, China) and housed under standard laboratory conditions throughout the study. All animals were housed in a controlled environment (22 ± 2 °C, 55 ± 10% humidity) under a 12/12 h light/dark cycle, with free access to a standard laboratory rodent diet and water. A 12 h fasting period was implemented prior to the experiment, with water permitted ad libitum. All animal procedures were performed in strict accordance with protocols approved by the Biological and Medical Ethics Committee of Minzu University of China.
After fasting for 12 h (with free access to water), SD rats (n = 25) were randomly divided into five groups (n = 5 per group). Group 1: crystalline Cur (i.v., dissolved in saline with 5% DMSO). Group 2: crystalline Cur (p.o., suspended in 0.5% CMC-Na). Group 3: Cur/P188 ASD (1:8, w/w; p.o.). Group 4: Cur/P188/TW80 ASD (1:8:1, w/w/w; p.o.). Group 5: Cur/P188/SLS ASD (1:8:1, w/w/w; p.o.). Group 1 received the formulation via tail vein injection, while Groups 2–5 were suspended in water (pH 7.0) and administered orally by gavage at a Cur-equivalent dose of 40 mg/kg. Blood samples (0.2 mL) were collected from each rat at 4, 7, 10, 20, and 30 min, and 1, 2, 4, and 24 h post-dosing. Plasma was separated by centrifugation (5000 rpm, 5 min, 4 °C) and stored at −80 °C until analysis.
Cur was extracted from 50 μL of plasma using 600 μL of ethyl acetate and quantified by LC-MS/MS, with diclofenac sodium (20 μL, 200 ng/mL) serving as the internal standard. Blank plasma was obtained from a separate control group (n = 5) that received water only. Analysis of these blank samples confirmed the absence of significant matrix interference, thereby validating the analytical method.
(§1) Cur quantification in cellular and rat plasma samples was carried out using a SCIEX QTRAP® 5500 LC-MS/MS system coupled with a SCIEX ExionLC^TM AC system (AB SCIEX, Framingham, MA, USA).
Separation was achieved on an Acquity UPLC® BEH C18 column (100 × 2.1 mm, 1.7 μm; Waters) maintained at 40 °C. The mobile phase consisted of (A) 0.1% formic acid in water and (B) acetonitrile (ACN), delivered at a flow rate of 0.14 mL/min with the following gradient program: 10% B (0–1.0 min), increased to 95% B (1.0–9.0 min), and returned to 10% B (9.0–12.0 min). The injection volume was 5 μL. The retention times were approximately 4.85 min for Cur and 6.70 min for diclofenac sodium, used as the internal standard (IS).
Mass spectrometric detection was performed using an IonDrive^TM Turbo V ion (SCIEX, Framingham, MA, USA) source operating in negative electrospray ionization (ESI) mode. Quantification was conducted via multiple reaction monitoring (MRM) at m/z 367.1→133.9 for Cur, and m/z 294.1→250.0 for diclofenac sodium (IS). The assay was linear over the concentration range of 2-500 ng/mL (R^2 > 0.999). All data were acquired in triplicate (n = 3) and processed using MultiQuant software version 3.0.2 (AB SCIEX).
Pharmacokinetic parameters were calculated using non-compartmental analysis with DAS 2.0 software (Boying Corporation, Beijing, China). Data analysis was performed using GraphPad Prism 10.1.2 software. The result is expressed as mean ± standard deviation (SD). For pairwise comparisons between groups, t-tests were conducted. For multiple group comparisons, one-way analysis of variance (ANOVA) was performed, followed by Tukey’s post hoc test for multiple comparisons. Prior to ANOVA, the assumptions of normality and homogeneity of variances were verified using the Shapiro–Wilk test and Bartlett’s test, respectively. p < 0.05 indicates statistically significant differences.

MDCK cells [2] = test: cytotoxicity assay (CCK-8 cell viability); format: cell-based, canine; conditions: 4 h treatment
Procedure: Madin-Darby Canine Kidney (MDCK) cells were seeded in 96-well plates (1 × 10^5 cells/well) and cultured for 24 h at 37 °C in complete DMEM (10% FBS, 1% penicillin–streptomycin) under 5% CO2. Cells were treated for 4 h with 100 µL of complete DMEM media (pH 7.4) containing crystalline Cur, amorphous Cur, binary Cur/P188 ASD (1:8, w/w), or ternary Cur/P188/TW80 or Cur/P188/SLS ASDs (1:8:1, w/w/w), at Cur-equivalent concentrations of 0 (vehicle), 2, 10, 25, 50, 100, and 200 μg/mL. After treatment, cells were washed three times with PBS (pH 7.4). Cell viability was assessed using a CCK-8 assay: 100 µL of serum-free DMEM and 10 µL of CCK-8 reagent were added to each well, followed by incubation for 2 h. Absorbance was measured at 450 nm using a Multiskan GO microplate reader (Thermo Fisher Scientific, Vantaa, Finland).
Cell viability was calculated according to the following equation:Viability (%) = [(As − Aᵦ)/(Ac − Aᵦ)] × 100% where
• As is the absorbance of experimental wells (cells + treatment + CCK-8); • Ac is the absorbance of control wells (cells + medium + CCK-8, no drug); • Aᵦ is the absorbance of blank wells (medium + CCK-8, no cells, no drug).
All experiments were performed in quintuplicate (n = 5).

[3] = in vitro non-sink dissolution; format: physicochemical; conditions: Cur-equivalent 1 mg/mL, water pH 7.0, 37 °C
Procedure: (§2) The dissolution behavior of Cur formulations was evaluated under non-sink conditions. Tested formulations included pure amorphous Cur, binary Cur/P188 ASD (1:8, w/w), and ternary Cur/P188/TW80 and Cur/P188/SLS ASDs (1:8:1, w/w/w). Each sample was introduced into 6 mL of water (pH 7.0) to achieve a Cur-equivalent concentration of 1 mg/mL at 37 °C. Aliquots (0.4 mL) were collected at 10, 20, and 45 min, as well as at 1h and 2 h, and immediately centrifuged (10,000 rpm, 3 min, 25 °C) to separate the supernatant from the precipitate. (1) The supernatant was diluted 1:2 (v/v) with methanol and analyzed for Cur concentration via HPLC/UV-Vis; (2) The precipitate was vacuum-dried and analyzed for crystallinity using PXRD.
All dissolution experiments were conducted in triplicate (n = 3).
Cur content in in vitro dissolution samples was quantified using a Waters 2695 Alliance HPLC system (Waters Corporation, Milford, MA, USA) equipped with a Waters 2998 photodiode array (PDA) detector. Separation was performed on an XBridge® C18 column (4.6 × 250 mm, 5.0 μm; Waters) maintained at 25 °C. The mobile phase, composed of water and methanol (80:20, v/v), was delivered isocratically at a flow rate of 1.0 mL/min. The injection volume was 10 μL, and detection was performed at 430 nm, and Cur eluted at approximately 4.80 min. […]

MDCK cells [4] = test: cellular uptake study (LC-MS/MS of intracellular Cur); format: cell-based, canine; conditions: 10 min incubation, 5 μg Cur-equivalent (10 μg/mL)
Procedure: MDCK cells were seeded in 24-well plates and cultured following the procedures described in Cytotoxicity Assay section. The cells were treated with 500 µL of complete DMEM medium (pH 7.4) containing crystalline Cur, amorphous Cur, binary Cur/P188 ASD (1:8, w/w), or ternary Cur/P188/TW80 or Cur/P188/SLS ASDs (1:8:1, w/w/w), at Cur-equivalent dose of 5 µg per well. After 10 min of incubation, the treatment was terminated by immediate removal of the medium. The cells were then washed three times with ice-cold PBS, lysed with 200 µL of 0.1% SDS (assisted by sonication), and dissolved in methanol at a 1:2 (v/v) ratio. The total intracellular Cur content was quantified using LC-MS/MS. All experiments were performed in quadruplicate (n = 4).
as §1
Separation was achieved on an Acquity UPLC® BEH C18 column (100 × 2.1 mm, 1.7 μm; Waters) maintained at 40 °C. […]
Mass spectrometric detection was performed using an IonDrive^TM Turbo V ion (SCIEX, Framingham, MA, USA) source operating in negative electrospray ionization (ESI) mode. Quantification was conducted via multiple reaction monitoring (MRM) at m/z 367.1→133.9 for Cur, and m/z 294.1→250.0 for diclofenac sodium (IS). […]

[5] = PXRD crystallinity of precipitates collected during dissolution; format: physicochemical; conditions: precipitates collected at 20 min and 1 h of non-sink dissolution
Procedure: PXRD was used to characterize the crystalline nature of both freshly prepared Cur ASDs and precipitates collected during their dissolution. Measurements were conducted on a Rigaku Smartlab diffractometer (Rigaku Corporation, Tokyo, Japan) configured in Bragg–Brentano geometry using Cu Kα1 radiation. Diffractograms were collected over a 2θ range of 0° to 60° with a step size of 0.01°.
as §2

[6] = equilibrium solubility of crystalline Cur in excipient solutions; format: physicochemical; conditions: pure water, pH 7.0, 37 °C, filtered 0.22 μm, read-out: equilibrium solubility (Cur con.)
Procedure: Excess crystalline Cur was suspended in each solution, vortexed (1 min), sonicated (10 min), and incubated (37 °C, 24 h). After incubation, suspensions were filtered (0.22 μm), and Cur concentration in the filtrate was quantified using HPLC/UV-Vis (HPLC/UV-Vis Method section). All experiments were performed in quadruplicate (n = 4).
Cur content in in vitro dissolution samples was quantified using a Waters 2695 Alliance HPLC system (Waters Corporation, Milford, MA, USA) equipped with a Waters 2998 photodiode array (PDA) detector. Separation was performed on an XBridge® C18 column (4.6 × 250 mm, 5.0 μm; Waters) maintained at 25 °C. The mobile phase, composed of water and methanol (80:20, v/v), was delivered isocratically at a flow rate of 1.0 mL/min. The injection volume was 10 μL, and detection was performed at 430 nm, and Cur eluted at approximately 4.80 min. […] All data were acquired in triplicate (n = 3) and processed using Empower®3 Software (Waters).

[7] = cited from earlier work
[8] = male, Sprague-Dawley, plasma, iv, 40 mg/kg Cur-equivalent

Cmax [1, 8]: 334 ± 9.6 ng/mL | Tmax [1, 8]: 6 min | half-life [1, 8]: 1.8 ± 0.2 h | MRT last ([1]; male, Sprague-Dawley, plasma, iv, i.v., 40 mg/kg Cur-equivalent, read-out: MRT(0–24)): 5.2 ± 0.2 h | concentration at 0.07 h ([1]; male, Sprague-Dawley, plasma, iv, 40 mg/kg, i.v., 40 mg/kg, 0.07 h, Rat1-Rat5, read-out: plasma concentration of Cur, individual animals): 331 ng/mL | concentration at 0.12 h ([1]; male, Sprague-Dawley, plasma, iv, 40 mg/kg, i.v., 40 mg/kg, 0.12 h, Rat1-Rat5, read-out: plasma concentration of Cur, individual animals): 261 ng/mL | concentration at 0.17 h ([1]; male, Sprague-Dawley, plasma, iv, 40 mg/kg, i.v., 40 mg/kg, 0.17 h, Rat1-Rat5, read-out: plasma concentration of Cur, individual animals): 220 ng/mL | concentration at 0.33 h ([1]; male, Sprague-Dawley, plasma, iv, 40 mg/kg, i.v., 40 mg/kg, 0.33 h, Rat1-Rat5, read-out: plasma concentration of Cur, individual animals): 181 ng/mL | concentration at 0.5 h ([1]; male, Sprague-Dawley, plasma, iv, 40 mg/kg, i.v., 40 mg/kg, 0.5 h, Rat1-Rat5, read-out: plasma concentration of Cur, individual animals): 160 ng/mL | concentration at 1 h ([1]; male, Sprague-Dawley, plasma, iv, 40 mg/kg, i.v., 40 mg/kg, 1 h, Rat1-Rat5, read-out: plasma concentration of Cur, individual animals): 85.2 ng/mL | concentration at 2 h ([1]; male, Sprague-Dawley, plasma, iv, 40 mg/kg, i.v., 40 mg/kg, 2 h, Rat1-Rat5, read-out: plasma concentration of Cur, individual animals): 50.6 ng/mL | concentration at 4 h ([1]; male, Sprague-Dawley, plasma, iv, 40 mg/kg, i.v., 40 mg/kg, 4 h, Rat1-Rat5, read-out: plasma concentration of Cur, individual animals): 25.9 ng/mL | concentration at 24 h ([1]; male, Sprague-Dawley, plasma, iv, 40 mg/kg, i.v., 40 mg/kg, 24 h, Rat1-Rat5, read-out: plasma concentration of Cur, individual animals): 8.3 ng/mL
SMILES: COc1cc(/C=C/C(=O)CC(=O)/C=C/c2ccc(O)c(OC)c2)ccc1O [Solution Cur, Curcumin]
plasma concentration of Cur, individual animals ([1]; i.v., 40 mg/kg, 0.07 h): 340.1 ng/mL and 337.1 ng/mL and 323.9 ng/mL and 342.5 ng/mL | plasma concentration of Cur, individual animals ([1]; i.v., 40 mg/kg, 0.12 h): 255.2 ng/mL and 257.9 ng/mL and 258.8 ng/mL and 264.3 ng/mL | plasma concentration of Cur, individual animals ([1]; i.v., 40 mg/kg, 0.17 h): 215.1 ng/mL and 212.7 ng/mL and 219.1 ng/mL and 237.5 ng/mL | plasma concentration of Cur, individual animals ([1]; i.v., 40 mg/kg, 0.33 h): 192.4 ng/mL and 207.1 ng/mL and 170.5 ng/mL and 217.7 ng/mL | plasma concentration of Cur, individual animals ([1]; i.v., 40 mg/kg, 0.5 h): 130.3 ng/mL and 126.5 ng/mL and 120.8 ng/mL and 194.6 ng/mL | plasma concentration of Cur, individual animals ([1]; i.v., 40 mg/kg, 1 h): 96.5 ng/mL and 101.5 ng/mL and 102.2 ng/mL and 65.3 ng/mL | plasma concentration of Cur, individual animals ([1]; i.v., 40 mg/kg, 2 h): 63.9 ng/mL and 65.1 ng/mL and 75.3 ng/mL and 40.5 ng/mL | plasma concentration of Cur, individual animals ([1]; i.v., 40 mg/kg, 4 h): 35.9 ng/mL and 25.7 ng/mL and 32.9 ng/mL and 22.5 ng/mL | plasma concentration of Cur, individual animals ([1]; i.v., 40 mg/kg, 24 h): 10.2 ng/mL and 9.5 ng/mL and 8.5 ng/mL and 8.7 ng/mL

dissolved Cur concentration reached over 2 h [3]: ~ 1 μg/mL | cellular uptake (% of the administered dose) (MDCK cells [4]): 1.4% | crystallinity of precipitates during dissolution (PXRD) [5]: crystallized immediately upon hydration
SMILES: COc1cc(/C=C/C(=O)CC(=O)/C=C/c2ccc(O)c(OC)c2)ccc1O [amorphous Cur, Curcumin]
IC50 (cytotoxicity, Cur-equivalent) (MDCK cells [2]): 54.7 µg/mL

solubility thermodynamic at 24 h [6]: < 0.1 µg/mL
SMILES: COc1cc(/C=C/C(=O)CC(=O)/C=C/c2ccc(O)c(OC)c2)ccc1O [Curcumin]
logP [7]: ≈ 3
